Laboratory results reported in patent US20090018166A1, “New Pyridine Analogues X 161” (ASTRAZENECA AB, priority 2007, published 2009).

The compounds below were run against T1, P2Y12 receptor (Homo sapiens, UniProt Q9H244) (assay: Functional inhibition of 2-Me-S-ADP induced P2Y12 signalling (35S-GTPγS binding, membranes from P2Y12 transfected CHO-cells)). Conditions: 35S-GTPγS, EC80 of 2-methyl-thio-adenosine diphosphate, P2Y12 CHO membranes; value given in each example; read-out: GTPγS(IC50 μM).
T1 construct: expressed in transfected cells; host or cells: CHO cells (membranes)
Type: biochemical
Protocol: Functional inhibition of- the P2Y12 receptor can be measured by in vitro assays using cell membranes from P2Y12 transfected CHO-cells, the methodology is indicated below.
Functional inhibition of 2-Me-S-ADP induced P2Y12 signalling: 5 μg of membranes were diluted in 200 μl of 200 mM NaCl, 1 mM MgCl2, 50 mM HEPES (pH 7.4), 0.01% BSA, 30 μg/ml saponin and 10 μM GDP. To this was added an EC80 concentration of agonist (2-methyl-thio-adenosine diphosphate), the required concentration of test compound and 0.1 μCi ^35S-GTPγS. The reaction was allowed to proceed at 30° C. for 45 min. Samples were then transferred on to GF/B filters using a cell harvester and washed with wash buffer (50 mM Tris (pH 7.4), 5 mM MgCl2, 50 mM NaCl). Filters were then covered with scintilant and counted for the amount of ^35S-GTPγS retained by the filter. Maximum activity was that determined in the presence of the agonist and minimum activity in the absence of the agonist following subtraction of the value determined for non-specific activity. The effect of compounds at various concentrations was plotted according to the equation
y=A+((B−A)/(1+((C/x)̂D)))
and IC50 estimated where A is the bottom plateau of the curve i.e. the final minimum y value B is the top of the plateau of the curve i.e. the final maximum y value C is the x value at the middle of the curve. This represents the log EC50 value when A+B=100 D is the slope factor. x is the original known x values. Y is the original known y values.

T1 sequence (Q9H244 whole entry): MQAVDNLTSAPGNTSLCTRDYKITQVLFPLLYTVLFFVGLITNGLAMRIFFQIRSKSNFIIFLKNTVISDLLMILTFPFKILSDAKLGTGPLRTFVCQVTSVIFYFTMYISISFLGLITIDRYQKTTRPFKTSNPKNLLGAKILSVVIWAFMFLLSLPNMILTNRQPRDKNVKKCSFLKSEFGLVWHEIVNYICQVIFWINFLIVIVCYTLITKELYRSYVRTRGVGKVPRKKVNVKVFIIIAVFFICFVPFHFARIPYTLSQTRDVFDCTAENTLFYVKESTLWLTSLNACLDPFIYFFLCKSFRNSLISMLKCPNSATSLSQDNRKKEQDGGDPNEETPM

Row | IC50 [µM] | Structure (SMILES)
1 | 0.017 | C=CCCC(=O)c1cc(C#N)c(N2CCC(C(=O)NS(=O)(=O)Cc3ccccc3)CC2)nc1CN1CCCC1=O [Example 26, N-(benzylsulfonyl)-1-{3-cyano-6-[(2-oxopyrrolidin-1-yl)methyl]-5-pent-4-enoylpyridin-2-yl}piperidine-4-carboxamide]
2 | 0.02 | C=CCCC(=O)c1cc(C#N)c(N2CCC(C(=O)NS(=O)(=O)CC3CCCC3)CC2)nc1CN1CCCC1=O [Example 27, 1-{3-cyano-6-[(2-oxopyrrolidin-1-yl)methyl]-5-pent-4-enoylpyridin-2-yl}-N-[(cyclopentylmethyl)sulfonyl]piperidine-4-carboxamide]
3 | 0.022 | C=CCCC(=O)c1cc(C#N)c(N2CCC(C(=O)NS(=O)(=O)N(C)c3ccc(F)cc3)CC2)nc1CN1CCCC1=O [Example 28, 1-{3-cyano-6-[(2-oxopyrrolidin-1-yl)methyl]-5-pent-4-enoylpyridin-2-yl}-N-{[(4-fluorophenyl)(methyl)amino]sulfonyl}piperidine-4-carboxamide]
4 | 0.013 | C=CCCC(=O)c1cc(C#N)c(N2CCC(C(=O)NS(=O)(=O)N(C)c3ccccc3)CC2)nc1CN1CCCC1=O [Example 29, 1-{3-cyano-6-[(2-oxopyrrolidin-1-yl)methyl]-5-pent-4-enoylpyridin-2-yl}-N-{[methyl(phenyl)amino]sulfonyl}piperidine-4-carboxamide]
5 | 0.062 | CCCC(=O)c1cc(Cl)c(N2CCC(C(=O)NS(=O)(=O)Cc3ccccc3)CC2)nc1CN1CCCC1=O [Example 30, N-(Benzylsulfonyl)-1-{5-butyryl-3-chloro-6-[(2-oxopyrrolidin-1-yl)methyl]pyridin-2-yl}piperidine-4-carboxamide]
6 | 0.109 | CCCC(=O)c1cc(Cl)c(N2CCC(C(=O)NS(=O)(=O)N(C)c3ccc(F)cc3)CC2)nc1CN1CCCC1=O [Example 31, 1-{5-Butyryl-3-chloro-6-[(2-oxopyrrolidin-1-yl)methyl]pyridin-2-yl}-N-{[(4-fluorophenyl)(methyl)amino]sulfonyl}piperidine-4-carboxamide]
7 | 0.055 | CCCC(=O)c1cc(Cl)c(N2CCC(C(=O)NS(=O)(=O)Cc3ccc(C)cc3)CC2)nc1CN1CCCC1=O [Example 32, 1-{5-Butyryl-3-chloro-6-[(2-oxopyrrolidin-1-yl)methyl]pyridin-2-yl}-N-[(4-methylbenzyl)sulfonyl]piperidine-4-carboxamide]
8 | 0.011 | CCCC(=O)c1cc(C#N)c(N2CCC(C(=O)NS(=O)(=O)N(C)c3ccc(F)cc3)CC2)nc1CN1CCCC1=O [Example 33, 1-{5-Butyryl-3-cyano-6-[(2-oxopyrrolidin-1-yl)methyl]pyridin-2-yl}-N-{[(4-fluorophenyl)(methyl)amino]sulfonyl}piperidine-4-carboxamide]
9 | 0.012 | CCCC(=O)c1cc(C#N)c(N2CCC(C(=O)NS(=O)(=O)N(C)c3ccccc3)CC2)nc1CN1CCCC1=O [Example 34, 1-{5-Butyryl-3-cyano-6-[(2-oxopyrrolidin-1-yl)methyl]pyridin-2-yl}-N-{[methyl(phenyl)amino]sulfonyl}piperidine-4-carboxamide]
10 | 0.0097 | CCCC(=O)c1cc(C#N)c(N2CCC(C(=O)NS(=O)(=O)Cc3ccc(OC)cc3)CC2)nc1CN1CCCC1=O [Example 35, 1-{5-Butyryl-3-cyano-6-[(2-oxopyrrolidin-1-yl)methyl]pyridin-2-yl}-N-[(4-methoxybenzyl)sulfonyl]piperidine-4-carboxamide]
11 | 0.014 | CCCC(=O)c1cc(C#N)c(N2CCC(C(=O)NS(=O)(=O)CC3CCCCC3)CC2)nc1CN1CCCC1=O [Example 36, 1-{5-Butyryl-3-cyano-6-[(2-oxopyrrolidin-1-yl)methyl]pyridin-2-yl}-N-[(cyclohexylmethyl)sulfonyl]piperidine-4-carboxamide]
12 | 0.019 | CCCC(=O)c1cc(C#N)c(N2CCC(C(=O)NS(=O)(=O)Nc3ccc(F)cc3)CC2)nc1CN1CCCC1=O [Example 37, 1-{5-Butyryl-3-cyano-6-[(2-oxopyrrolidin-1-yl)methyl]pyridin-2-yl}-N-{[(4-fluorophenyl)amino]sulfonyl}piperidine-4-carboxamide]
13 | 0.033 | CCCC(=O)c1cc(C#N)c(N2CCC(C(=O)NS(=O)(=O)Nc3ccccc3)CC2)nc1CN1CCCC1=O [Example 38, N-(Anilinosulfonyl)-1-{5-butyryl-3-cyano-6-[(2-oxopyrrolidin-1-yl)methyl]pyridin-2-yl}piperidine-4-carboxamide]
14 | 0.0081 | C=CCCC(=O)c1cc(C#N)c(N2CCC(C(=O)NS(=O)(=O)Cc3ccc(C)cc3)CC2)nc1CN1CCCC1=O [Example 40, 1-{3-cyano-6-[(2-oxopyrrolidin-1-yl)methyl]-5-pent-4-enoylpyridin-2-yl}-N-[(4-methylbenzyl)sulfonyl]piperidine-4-carboxamide]
15 | 0.009 | C=CCCC(=O)c1cc(C#N)c(N2CCC(C(=O)NS(=O)(=O)Cc3ccc(F)cc3F)CC2)nc1CN1CCCC1=O [Example 41, 1-{3-cyano-6-[(2-oxopyrrolidin-1-yl)methyl]-5-pent-4-enoylpyridin-2-yl}-N-[(2,4-difluorobenzyl)sulfonyl]piperidine-4-carboxamide]
16 | 0.016 | N#Cc1cc(C(=O)CCC(F)(F)F)c(CN2CCCC2=O)nc1N1CCC(C(=O)NS(=O)(=O)Cc2ccc(F)cc2F)CC1 [Example 42, 1-{3-Cyano-6-[(2-oxopyrrolidin-1-yl)methyl]-5-(4,4,4-trifluorobutanoyl)pyridin-2-yl}-N-[(2,4-difluorobenzyl)sulfonyl]piperidine-4-carboxamide]
17 | 0.019 | Cc1ccc(CS(=O)(=O)NC(=O)C2CCN(c3nc(CN4CCCC4=O)c(C(=O)CCC(F)(F)F)cc3C#N)CC2)cc1 [Example 43, 1-{3-cyano-6-[(2-oxopyrrolidin-1-yl)methyl]-5-(4,4,4-trifluorobutanoyl)pyridin-2-yl}-N-[(4-methylbenzyl)sulfonyl]piperidine-4-carboxamide]
18 | 0.146 | N#Cc1cc(C(=O)CCC(F)(F)F)c(CN2CCCC2=O)nc1N1CCC(C(=O)NS(=O)(=O)CC2CCCC2)CC1 [Example 44, 1-{3-cyano-6-[(2-oxopyrrolidin-1-yl)methyl]-5-(4,4,4-trifluorobutanoyl)pyridin-2-yl}-N-[(cyclopentylmethyl)sulfonyl]piperidine-4-carboxamide]
19 | 0.05 | CN(c1ccc(F)cc1)S(=O)(=O)NC(=O)C1CCN(c2nc(CN3CCCC3=O)c(C(=O)CCC(F)(F)F)cc2C#N)CC1 [Example 45, 1-{3-cyano-6-[(2-oxopyrrolidin-1-yl)methyl]-5-(4,4,4-trifluorobutanoyl)pyridin-2-yl}-N-{[(4-fluorophenyl)(methyl)amino]sulfonyl}piperidine-4-carboxamide]
20 | 0.021 | CCCCC(=O)c1cc(C#N)c(N2CCC(C(=O)NS(=O)(=O)Nc3ccc(F)cc3)CC2)nc1CN1CCCC1=O [Example 46, 1-{3-cyano-6-[(2-oxopyrrolidin-1-yl)methyl]-5-pentanoylpyridin-2-yl}-N-{[(4-fluorophenyl)amino]sulfonyl}piperidine-4-carboxamide]
21 | 0.043 | CCCCC(=O)c1cc(C#N)c(N2CCC(C(=O)NS(=O)(=O)Cc3ccc(C#N)cc3)CC2)nc1CN1CCCC1=O [Example 47, N-[(4-cyanobenzyl)sulfonyl]-1-{3-cyano-6-[(2-oxopyrrolidin-1-yl)methyl]-5-pentanoylpyridin-2-yl}piperidine-4-carboxamide]
22 | 0.023 | CCCCC(=O)c1cc(C#N)c(N2CCC(C(=O)NS(=O)(=O)CC3CCCCC3)CC2)nc1CN1CCCC1=O [Example 48, 1-{3-cyano-6-[(2-oxopyrrolidin-1-yl)methyl]-5-pentanoylpyridin-2-yl}-N-[(cyclohexylmethyl)sulfonyl]piperidine-4-carboxamide]
23 | 0.031 | CCCCC(=O)c1cc(C#N)c(N2CCC(C(=O)NS(=O)(=O)Cc3ccc(C(C)C)cc3)CC2)nc1CN1CCCC1=O [Example 49, 1-{3-cyano-6-[(2-oxopyrrolidin-1-yl)methyl]-5-pentanoylpyridin-2-yl}-N-[(4-isopropylbenzyl)sulfonyl]piperidine-4-carboxamide]
24 | 0.167 | C=CCCC(=O)c1cc(Cl)c(N2CCC(C(=O)NS(=O)(=O)N(C)c3ccc(F)cc3)CC2)nc1CN1CCCC1=O [Example 50, 1-{3-chloro-6-[(2-oxopyrrolidin-1-yl)methyl]-5-pent-4-enoylpyridin-2-yl}-N-{[(4-fluorophenyl)(methyl)amino]sulfonyl}piperidine-4-carboxamide]
25 | 0.069 | C=CCCC(=O)c1cc(Cl)c(N2CCC(C(=O)NS(=O)(=O)Cc3ccccc3)CC2)nc1CN1CCCC1=O [Example 51, N-(benzylsulfonyl)-1-{3-chloro-6-[(2-oxopyrrolidin-1-yl)methyl]-5-pent-4-enoylpyridin-2-yl}piperidine-4-carboxamide]
26 | 0.231 | CCCC(=O)c1cc(Cl)c(N2CCC(C(=O)NS(=O)(=O)CC3CCCCC3)CC2)nc1CN1CCCC1=O [Example 52, 1-{5-butyryl-3-chloro-6-[(2-oxopyrrolidin-1-yl)methyl]pyridin-2-yl}-N-[(cyclohexylmethyl)sulfonyl]piperidine-4-carboxamide]
